Data from US20240043404A1 (AbbVie Inc., priority 2009, published 2024).

Tested on: RS4;11 cells
Assay: RS4;11 cell viability assay (CellTiter Glo);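 further: acute lymphoblastic leukemia line RS4,11, EC50 derived from percentage of viable cells after treatment relative to untreated controls, cell killing taken as a measure of Bcl-2 inhibition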
Format: cell-based, human
Details: Homo sapiens, RS4-11, 48 h, 50,000 cells per well, 10% human serum, 48 hours; read-out: RS4; 11 EC50 Values
Experimental: The acute lymphoblastic leukemia (ALL) cell line RS4;11 was used as the primary human cell line to assess the cellular activity of Bcl-2 selective agents in vitro and their efficacy in vivo.
Cell cytotoxicity EC50 values were assessed using CellTiter Glo (Promega) according to the manufacturer's recommendations. The EC50 values were determined as a percentage of viable cells following treatment compared to the untreated control cells.

SMILES | EC50 [nM]
CN1CCC(Nc2ccc(S(=O)(=O)NC(=O)c3ccc(N4CCN(CC5=C(c6ccc(Cl)cc6)CC(C)(C)OC5)CC4)cc3Oc3cnc4[nH]ccc4c3)cc2S(=O)(=O)C(F)(F)F)CC1 [Example 45, 4-(4-{[4-(4-chlorophenyl)-6,6-dimethyl-5,6-dihydro-2H-pyran-3-yl]methyl}piperazin-1-yl)-N-({4-[(1-methylpiperidin-4-yl)amino]-3-[(trifluoromethyl)sulfonyl]phenyl}sulfonyl)-2-(1H-pyrrolo[2,3-b]pyridin-5-yloxy)benzamide] | 9.92
CC1(C)CCC(CN2CCN(c3ccc(C(=O)NS(=O)(=O)c4ccc(NC5CCC(N6CCC(F)(F)C6)CC5)c([N+](=O)[O-])c4)c(Oc4cnc5[nH]ccc5c4)c3)CC2)=C(c2ccc(Cl)cc2)C1 (stereo not shown) [Example 346, 4-(4-{[2-(4-chlorophenyl)-4,4-dimethylcyclohex-1-en-1-yl]methyl}piperazin-1-yl)-N-[(4-{[4-(3,3-difluoropyrrolidin-1-yl)cyclohexyl]amino}-3-nitrophenyl)sulfonyl]-2-(1H-pyrrolo[2,3-b]pyridin-5-yloxy)benzamide] | 190
CC1(C)CCC(CC2CCN(c3ccc(C(=O)NS(=O)(=O)c4cnc(OCC5(O)CCC(F)(F)CC5)c(Cl)c4)c(Oc4cnc5[nH]ccc5c4)c3)CC2)=C(c2ccc(Cl)cc2)C1 [Example 302, N-({5-chloro-6-[(4,4-difluoro-1-hydroxycyclohexyl)methoxy]pyridin-3-yl}sulfonyl)-4-(4-{[2-(4-chlorophenyl)-4,4-dimethylcyclohex-1-en-1-yl]methyl}piperidin-1-yl)-2-(1H-pyrrolo[2,3-b]pyridin-5-yloxy)benzamide] | 381
CC(C)(CO)CNc1ccc(S(=O)(=O)NC(=O)c2ccc(N3CCN(CC4=C(c5ccc(Cl)cc5)CC(C)(C)CC4)CC3)cc2Oc2cnc3[nH]ccc3c2)cc1[N+](=O)[O-] [Example 146, 4-(4-{[2-(4-chlorophenyl)-4,4-dimethylcyclohex-1-en-1-yl]methyl}piperazin-1-yl)-N-({4-[(3-hydroxy-2,2-dimethylpropyl)amino]-3-nitrophenyl}sulfonyl)-2-(1H-pyrrolo[2,3-b]pyridin-5-yloxy)benzamide] | 19.2
CC1(C)CCC(CN2CCN(c3ccc(C(=O)NS(=O)(=O)c4cnc(O[C@@H]5CCN(CC(F)F)C5)c(Cl)c4)c(Oc4cnc5[nH]ccc5c4)c3)CC2)=C(c2ccc(Cl)cc2)C1 [Example 261, N-[(5-chloro-6-{[(3R)-1-(2,2-difluoroethyl)pyrrolidin-3-yl]oxy}pyridin-3-yl)sulfonyl]-4-(4-{[2-(4-chlorophenyl)-4,4-dimethylcyclohex-1-en-1-yl]methyl}piperazin-1-yl)-2-(1H-pyrrolo[2,3-b]pyridin-5-yloxy)benzamide] | 184
O=C(NS(=O)(=O)c1ccc(NCC2CCOCC2)c([N+](=O)[O-])c1)c1ccc(N2CCC(F)(Cc3ccccc3-c3ccc(Cl)cc3)CC2)cc1Oc1cnc2[nH]ccc2c1 [Example 271, 4-{4-[(4′-chlorobiphenyl-2-yl)methyl]-4-fluoropiperidin-1-yl}-N-({3-nitro-4-[(tetrahydro-2H-pyran-4-ylmethyl)amino]phenyl}sulfonyl)-2-(1H-pyrrolo[2,3-b]pyridin-5-yloxy)benzamide] | 437
COC1(Cc2ccccc2-c2ccc(Cl)cc2)CCN(c2ccc(C(=O)NS(=O)(=O)c3ccc(NCC4CCOCC4)c([N+](=O)[O-])c3)c(Oc3cnc4[nH]ccc4c3)c2)CC1 [Example 264, 4-{4-[(4′-chlorobiphenyl-2-yl)methyl]-4-methoxypiperidin-1-yl}-N-({3-nitro-4-[(tetrahydro-2H-pyran-4-ylmethyl)amino]phenyl}sulfonyl)-2-(1H-pyrrolo[2,3-b]pyridin-5-yloxy)benzamide] | 689
CC1(C)CCC(CN2CCN(c3ccc(C(=O)NS(=O)(=O)c4ccc(OCC5C[C@H]6C=C[C@@H]5C6)c([N+](=O)[O-])c4)c(Oc4cnc5[nH]ccc5c4)c3)CC2)=C(c2ccc(Cl)cc2)C1 (stereo partly drawn) [Example 201, N-({4-[(1S,4S)-bicyclo[2.2.1]hept-5-en-2-ylmethoxy]-3-nitrophenyl}sulfonyl)-4-(4-{[2-(4-chlorophenyl)-4,4-dimethylcyclohex-1-en-1-yl]methyl}piperazin-1-yl)-2-(1H-pyrrolo[2,3-b]pyridin-5-yloxy)benzamide] | 591

Second part, the compound after the results:

EC50 [nM] | SMILES
59.7 | CO[C@H]1CC[C@@H](COc2ccc(S(=O)(=O)NC(=O)c3ccc(N4CCN(CC5=C(c6ccc(Cl)cc6)CC(C)(C)CC5)CC4)cc3Oc3cnc4[nH]ccc4c3)cc2[N+](=O)[O-])CC1 [Example 121, 2-(1H-pyrrolo[2,3-b]pyridin-5-yloxy)-4-(4-((2-(4-chlorophenyl)-4,4-dimethylcyclohex-1-enyl)methyl)piperazin-1-yl)-N-(4-((cis-4-methoxycyclohexyl)methoxy)-3-nitrophenylsulfonyl)benzamide]
1720 | C#Cc1cc(S(=O)(=O)NC(=O)c2ccc(N3CCN(CC4=C(c5ccc(Cl)cc5)CC(C)(C)CC4)CC3)cc2Oc2cnc3[nH]ccc3c2)cnc1OCC1CCOCC1 [Example 69, 4-(4-{[2-(4-chlorophenyl)-4,4-dimethylcyclohex-1-en-1-yl]methyl}piperazin-1-yl)-N-{[5-ethynyl-6-(tetrahydro-2H-pyran-4-ylmethoxy)pyridin-3-yl]sulfonyl}-2-(1H-pyrrolo[2,3-b]pyridin-5-yloxy)benzamide]
19.1 | CC1(C)CCC(CN2CCN(c3ccc(C(=O)NS(=O)(=O)c4ccc(NC5CCN(C6CCOC6)CC5)c([N+](=O)[O-])c4)c(Oc4cnc5[nH]ccc5c4)c3)CC2)=C(c2ccc(Cl)cc2)C1 (stereo not shown) [Example 143, 4-(4-{[2-(4-chlorophenyl)-4,4-dimethylcyclohex-1-en-1-yl]methyl}piperazin-1-yl)-N-({3-nitro-4-[(1-tetrahydrofuran-3-ylpiperidin-4-yl)amino]phenyl}sulfonyl)-2-(1H-pyrrolo[2,3-b]pyridin-5-yloxy)benzamide]
66.7 | CC(=O)N1CCC(Nc2ccc(S(=O)(=O)NC(=O)c3ccc(N4CCN(CC5=C(c6ccc(Cl)cc6)CC(C)(C)CC5)CC4)cc3Oc3cnc4[nH]ccc4c3)cc2[N+](=O)[O-])CC1 [Example 53, N-({4-[(1-acetylpiperidin-4-yl)amino]-3-nitrophenyl}sulfonyl)-4-(4-{[2-(4-chlorophenyl)-4,4-dimethylcyclohex-1-en-1-yl]methyl}piperazin-1-yl)-2-(1H-pyrrolo[2,3-b]pyridin-5-yloxy)benzamide]
> 1000 | CC1(C)CCC(CN2CCN(c3ccc(C(=O)NS(=O)(=O)c4cnc(OCC5CCOCC5)c(S(C)(=O)=O)c4)c(Oc4cnc5[nH]ccc5c4)c3)CC2)=C(c2ccc(Cl)cc2)C1 [Example 219, 4-(4-{[2-(4-chlorophenyl)-4,4-dimethylcyclohex-1-en-1-yl]methyl}piperazin-1-yl)-N-{[5-(methylsulfonyl)-6-(tetrahydro-2H-pyran-4-ylmethoxy)pyridin-3-yl]sulfonyl}-2-(1H-pyrrolo[2,3-b]pyridin-5-yloxy)benzamide]
26.2 | CC1(C)CCC(CN2CCN(c3ccc(C(=O)NS(=O)(=O)c4ccc(NCC5CCCN(S(C)(=O)=O)C5)c([N+](=O)[O-])c4)c(Oc4cnc5[nH]ccc5c4)c3)CC2)=C(c2ccc(Cl)cc2)C1 (stereo not shown) [Example 147, 4-(4-{[2-(4-chlorophenyl)-4,4-dimethylcyclohex-1-en-1-yl]methyl}piperazin-1-yl)-N-{[4-({[1-(methylsulfonyl)piperidin-3-yl]methyl}amino)-3-nitrophenyl]sulfonyl}-2-(1H-pyrrolo[2,3-b]pyridin-5-yloxy)benzamide]
51 | CC1(C)CCCC(CN2CCN(c3ccc(C(=O)NS(=O)(=O)c4ccc(NCC5CCOCC5)c([N+](=O)[O-])c4)c(Oc4cnc5[nH]ccc5c4)c3)CC2)=C1c1ccc(Cl)cc1 [Example 150, 4-(4-{[2-(4-chlorophenyl)-3,3-dimethylcyclohex-1-en-1-yl]methyl}piperazin-1-yl)-N-({3-nitro-4-[(tetrahydro-2H-pyran-4-ylmethyl)amino]phenyl}sulfonyl)-2-(1H-pyrrolo[2,3-b]pyridin-5-yloxy)benzamide]
683 | CC1(C)CCC(CN2CCN(c3ccc(C(=O)NS(=O)(=O)c4ccc(NCC5CN(CC(=O)O)CCO5)c([N+](=O)[O-])c4)c(Oc4cnc5[nH]ccc5c4)c3)CC2)=C(c2ccc(Cl)cc2)C1 (stereo not shown) [Example 216, (2-{[(4-{[4-(4-{[2-(4-chlorophenyl)-4,4-dimethylcyclohex-1-en-1-yl]methyl}piperazin-1-yl)-2-(1H-pyrrolo[2,3-b]pyridin-5-yloxy)benzoyl]sulfamoyl}-2-nitrophenyl)amino]methyl}morpholin-4-yl)acetic acid]
> 1000 | CC1(C)CCC(CN2CCN(c3ccc(C(=O)NS(=O)(=O)c4ccc(NCC5CCOCC5)c(S(F)(F)(F)(F)F)c4)c(Oc4cnc5[nH]ccc5c4)c3)CC2)=C(c2ccc(Cl)cc2)C1 [Example 233, 4-(4-{[2-(4-chlorophenyl)-4,4-dimethylcyclohex-1-en-1-yl]methyl}piperazin-1-yl)-N-({3-(pentafluoro-lambda˜6˜-sulfanyl)-4-[(tetrahydro-2H-pyran-4-ylmethyl)amino]phenyl}sulfonyl)-2-(1H-pyrrolo[2,3-b]pyridin-5-yloxy)benzamide]
457 | CC1(C)CCC(CN2CCN(c3ccc(C(=O)NS(=O)(=O)c4ccc(NCC5CN(C6CC6)CCO5)c(Cl)c4)c(Oc4cnc5[nH]ccc5c4)c3)CC2)=C(c2ccc(Cl)cc2)C1 (stereo not shown) [Example 332, N-[(3-chloro-4-{[(4-cyclopropylmorpholin-2-yl)methyl]amino}phenyl)sulfonyl]-4-(4-{[2-(4-chlorophenyl)-4,4-dimethylcyclohex-1-en-1-yl]methyl}piperazin-1-yl)-2-(1H-pyrrolo[2,3-b]pyridin-5-yloxy)benzamide]
6.76 | COC1(C)CCC(c2ccc(Cl)cc2)=C(CN2CCN(c3ccc(C(=O)NS(=O)(=O)c4ccc(NCC5CCOCC5)c([N+](=O)[O-])c4)c(Oc4cnc5[nH]ccc5c4)c3)CC2)C1 (stereo not shown) [Example 378, 4-(4-{[2-(4-chlorophenyl)-5-methoxy-5-methylcyclohex-1-en-1-yl]methyl}piperazin-1-yl)-N-({3-nitro-4-[(tetrahydro-2H-pyran-4-ylmethyl)amino]phenyl}sulfonyl)-2-(1H-pyrrolo[2,3-b]pyridin-5-yloxy)benzamide]
